Measurements from article PMC9454457 (Journal of Nuclear Medicine, 2022).
Where two headings read alike, the source gives them in different places.

Legend:
[1] = In vitro metabolic stability in human plasma; type: in vitro ADME; conditions: 37°C, 72 ± 2 h, n = 4
Procedure: Metabolic stability in vitro was determined through a procedure published by Linder et al. that was slightly modified ([16]). Immediately after labeling, 200 μL of human plasma were added and the mixture was incubated at 37°C for 72 ± 2 h. Proteins were precipitated by treatment with ice-cold EtOH (150 μL) and ice-cold MeCN (450 μL), followed by centrifugation (13,000 rpm, 20 min). The supernatants were decanted and further centrifuged (13,000 rpm, 10 min) using a Costar Spin-X (Corning) centrifuge tube filter (0.45 μm). The filtrated plasma samples were analyzed using radio–RP-HPLC.
(§1) FIGURE 2. Preclinical data of ^nat/177Lu-RM2 (red), ^nat/177Lu-NeoBOMB1 (gray), ^nat/177Lu-AMTG (green), and ^nat/177Lu-AMTG2 (blue). (A) Affinity data on PC-3 and T-47D cells (1.5 × 10^5 cells/mL/well) using 3-^125I-D-Tyr^6-MJ9 (0.2 nM/well) as radiolabeled reference (2 h, room temperature, Hanks’ balanced salt solution plus 1% bovine serum albumin [v/v]). (B) GRPR-mediated internalization (0.25 pmol/well) on PC-3 cells as percentage of applied activity (incubation at 37°C for 1 h, Dulbecco modified Eagle medium/F-12 plus 5% bovine serum albumin [v/v], 1.5 × 10^5 cells/mL/well). Data were corrected for nonspecific binding (10^−3 M ^natLu-RM2). (C) Lipophilicity at pH 7.4 (logD7.4). (D) Metabolic stability in vitro in human plasma (left) (37°C, 72 ± 2 h; n = 4), and metabolic stability in vivo in murine plasma (middle) and murine urine (right) at 30 min after injection (n = 3). Data are expressed as mean ± SD.

[2] = Biodistribution in PC-3 tumor-bearing CB17-SCID mice; type: in vivo; conditions: 24 h after injection; for tissue uptake at 24 h: CB17-SCID, mouse, intravenous, total radioactivity
Procedure: A detailed description of tumor inoculation is provided in the supplemental materials. Approximately 2–5 MBq (100 pmol, 150 μL) of the ^177Lu-labeled GRPR ligands were injected into the tail vein of anesthetized (2% isoflurane) PC-3 tumor–bearing mice (biodistribution, n = 4; imaging, n = 1).
For biodistribution studies, organs were removed, weighed, and measured in a γ-counter (Perkin Elmer) after euthanasia at 24 h after injection.
For all competition studies, 3.62 mg/kg (40 nmol) of ^natLu-RM2 (10^−3 M in phosphate-buffered saline) were coadministered.

[3] = In vivo metabolic stability in murine plasma and urine; parameters: species or system CB17-SCID mice; conditions: 30 min after injection, n = 3
Procedure: Approximately 30–40 MBq (1 nmol, 150 μL) of the ^177Lu-labeled compounds were injected into the tail vein of anesthetized CB17-SCID mice (n = 3). After euthanasia at 30 min after injection, blood and urine samples were collected. Blood proteins were precipitated by treatment with ice-cold MeCN (v/v = 1/1), followed by centrifugation (13,000 rpm, 20 min). The supernatants were decanted and further centrifuged (13,000 rpm, 10 min) using a Costar Spin-X centrifuge tube filter (0.45 μm). The filtrated plasma samples and the urine samples were analyzed using radio–RP-HPLC.
as §1

[4] = adrenal, 100 pmol, 100 pmol, n = 4, read-out: Biodistribution, Adrenal
[5] = adrenal, 3.62 mg/kg, coinjection of natLu-RM2 3.62 mg/kg, n = 3, read-out: Biodistribution, Adrenal, competition study
[6] = blood, 100 pmol, 100 pmol, n = 4, read-out: Biodistribution, Blood
[7] = blood, 3.62 mg/kg, coinjection of natLu-RM2 3.62 mg/kg, n = 3, read-out: Biodistribution, Blood, competition study
[8] = bone, 100 pmol, 100 pmol, n = 4, read-out: Biodistribution, Bone
[9] = bone, 3.62 mg/kg, coinjection of natLu-RM2 3.62 mg/kg, n = 3, read-out: Biodistribution, Bone, competition study
[10] = heart, 100 pmol, 100 pmol, n = 4, read-out: Biodistribution, Heart
[11] = heart, 3.62 mg/kg, coinjection of natLu-RM2 3.62 mg/kg, n = 3, read-out: Biodistribution, Heart, competition study
[12] = intestine, 100 pmol, 100 pmol, n = 4, read-out: Biodistribution, Intestine
[13] = intestine, 3.62 mg/kg, coinjection of natLu-RM2 3.62 mg/kg, n = 3, read-out: Biodistribution, Intestine, competition study
[14] = kidney, 100 pmol, 100 pmol, n = 4, read-out: Biodistribution, Kidney
[15] = kidney, 3.62 mg/kg, coinjection of natLu-RM2 3.62 mg/kg, n = 3, read-out: Biodistribution, Kidney, competition study
[16] = liver, 100 pmol, 100 pmol, n = 4, read-out: Biodistribution, Liver
[17] = liver, 3.62 mg/kg, coinjection of natLu-RM2 3.62 mg/kg, n = 3, read-out: Biodistribution, Liver, competition study
[18] = lung, 100 pmol, 100 pmol, n = 4, read-out: Biodistribution, Lung
[19] = lung, 3.62 mg/kg, coinjection of natLu-RM2 3.62 mg/kg, n = 3, read-out: Biodistribution, Lung, competition study
[20] = muscle, 100 pmol, 100 pmol, n = 4, read-out: Biodistribution, Muscle
[21] = muscle, 3.62 mg/kg, coinjection of natLu-RM2 3.62 mg/kg, n = 3, read-out: Biodistribution, Muscle, competition study
[22] = pancreas, 100 pmol, 100 pmol, n = 4, read-out: Biodistribution, Pancreas
[23] = pancreas, 3.62 mg/kg, coinjection of natLu-RM2 3.62 mg/kg, n = 3, read-out: Biodistribution, Pancreas, competition study
[24] = spleen, 100 pmol, 100 pmol, n = 4, read-out: Biodistribution, Spleen
[25] = spleen, 3.62 mg/kg, coinjection of natLu-RM2 3.62 mg/kg, n = 3, read-out: Biodistribution, Spleen, competition study
[26] = stomach, 100 pmol, 100 pmol, n = 4, read-out: Biodistribution, Stomach
[27] = stomach, 3.62 mg/kg, coinjection of natLu-RM2 3.62 mg/kg, n = 3, read-out: Biodistribution, Stomach, competition study
[28] = tumor (PC-3), 100 pmol, PC-3 tumor, 100 pmol, n = 4, read-out: Biodistribution, Tumor
[29] = tumor (PC-3), 3.62 mg/kg, PC-3 tumor, coinjection of natLu-RM2 3.62 mg/kg, n = 3, read-out: Biodistribution, Tumor, competition study

Row | Intact compound in human plasma in vitro [1] | tissue uptake at 24 h [2, 4] | tissue uptake at 24 h [2, 5] | tissue uptake at 24 h [2, 6] | tissue uptake at 24 h [2, 7] | tissue uptake at 24 h [2, 8] | tissue uptake at 24 h [2, 9] | tissue uptake at 24 h [2, 10] | tissue uptake at 24 h [2, 11] | tissue uptake at 24 h [2, 12] | tissue uptake at 24 h [2, 13] | tissue uptake at 24 h [2, 14] | tissue uptake at 24 h [2, 15] | tissue uptake at 24 h [2, 16] | tissue uptake at 24 h [2, 17] | tissue uptake at 24 h [2, 18] | tissue uptake at 24 h [2, 19] | tissue uptake at 24 h [2, 20] | tissue uptake at 24 h [2, 21] | tissue uptake at 24 h [2, 22] | Compound | other results
1 | 77.7% ± 8.7% | 0.46 ± 0.22 %ID/g | 0.09 ± 0.07 %ID/g | 0.004 ± 0.001 %ID/g | 0.003 %ID/g | 0.05 ± 0.02 %ID/g | 0.05 ± 0.03 %ID/g | 0.02 %ID/g | 0.02 ± 0.01 %ID/g | 0.2 ± 0.1 %ID/g | 0.27 ± 0.21 %ID/g | 1.2 to 1.9 %ID/g | 1.17 ± 0.26 %ID/g | 0.14 ± 0.03 %ID/g | 1.4 ± 0.86 %ID/g | 0.04 ± 0.01 %ID/g | 0.27 ± 0.15 %ID/g | 0.005 ± 0.003 %ID/g | 0.003 ± 0.002 %ID/g | 0.56 ± 0.3 %ID/g | CC(C)C[C@H](NC(=O)C[C@H](O)[C@H](CC(C)C)NC(=O)[C@H](Cc1c[nH]cn1)NC(=O)CNC(=O)[C@@H](NC(=O)[C@H](C)NC(=O)[C@](C)(Cc1c[nH]c2ccccc12)NC(=O)[C@H](CCC(N)=O)NC(=O)[C@@H](Cc1ccccc1)NC(=O)CN1CCC(NC(=O)CN2CCN(CC(=O)O)CCN(CC(=O)O)CCN(CC(=O)O)CC2)CC1)C(C)C)C(N)=O [^177Lu-AMTG, ^177Lu-α-Me-L-Trp^8-RM2, metal not drawn] | Higher activity level in PC-3 tumor than for 177Lu-RM2 [2]: 35%; tissue uptake at 24 h [2, 23]: 0.05 ± 0.03 %ID/g; tissue uptake at 24 h [2, 24]: 0.1 ± 0.02 %ID/g; tissue uptake at 24 h [2, 25]: 2.97 ± 2.01 %ID/g; tissue uptake at 24 h [2, 26]: 0.1 ± 0.04 %ID/g; tissue uptake at 24 h [2, 27]: 0.04 ± 0.02 %ID/g; tissue uptake at 24 h [2, 28]: 11.5 %ID/g; tissue uptake at 24 h [2, 29]: 0.33 ± 0.2 %ID/g; Intact tracer in murine plasma in vivo [3]: 92.9% ± 0.7%; Intact tracer in murine urine in vivo [3]: 68.2% ± 3.1%
2 | 66.2% ± 5.1% | 0.26 ± 0.14 %ID/g | 0.03 ± 0.02 %ID/g | 0.011 %ID/g | 0.002 ± 0.001 %ID/g | 0.22 ± 0.05 %ID/g | 0.02 ± 0.01 %ID/g | 0.03 ± 0.02 %ID/g | 0.02 ± 0.01 %ID/g | 0.3 ± 0.04 %ID/g | 0.34 ± 0.35 %ID/g | 1.2 to 1.9 %ID/g | 1.63 ± 0.44 %ID/g | 0.32 ± 0.14 %ID/g | 0.74 ± 0.44 %ID/g | 0.05 ± 0.01 %ID/g | 1.18 ± 1.49 %ID/g | 0.003 ± 0.003 %ID/g | 0.003 ± 0.002 %ID/g | 0.95 ± 0.14 %ID/g | CC(C)C[C@H](NC(=O)C[C@H](O)[C@H](CC(C)C)NC(=O)[C@H](Cc1c[nH]cn1)NC(=O)CNC(=O)[C@@H](NC(=O)[C@H](C)NC(=O)[C@](C)(Cc1c[nH]c2ccccc12)NC(=O)[C@H](CCC(N)=O)NC(=O)[C@@H](Cc1ccccc1)NC(=O)CN1CCC(NC(=O)CCC(C(=O)O)N2CCN(CC(=O)O)CCN(CC(=O)O)CCN(CC(=O)O)CC2)CC1)C(C)C)C(N)=O (stereo partly drawn) [^177Lu-AMTG2, ^177Lu-DOTAGA-α-Me-L-Trp^8-RM2, metal not drawn] | tissue uptake at 24 h [2, 23]: 0.07 ± 0.01 %ID/g; tissue uptake at 24 h [2, 24]: 0.15 ± 0.07 %ID/g; tissue uptake at 24 h [2, 25]: 1.06 ± 1.08 %ID/g; tissue uptake at 24 h [2, 26]: 0.12 ± 0.03 %ID/g; tissue uptake at 24 h [2, 27]: 0.04 ± 0.01 %ID/g; tissue uptake at 24 h [2, 28]: 7.97 ± 1.34 %ID/g; tissue uptake at 24 h [2, 29]: 0.36 ± 0.25 %ID/g; Intact tracer in murine plasma in vivo [3]: 77.6% ± 3.1%; Intact tracer in murine urine in vivo [3]: 61.6% ± 1.6%
